# Data taken from patent publication US10066270B2, “Methods and kits used in classifying adrenocortical carcinoma” (THE TRANSLATIONAL GENOMICS RESEARCH INSTITUTE, priority 2010, dated 2018).
# Columns and labels:
# PTTG1 [1] = test: PTTG1 expression in SW-13 ACC cell line, relative to beta-actin; format: cell-based
# Text: FIG. 6 depicts the effect of vorinostat on the ACC cell line SW-13.
# PTTG1 [2] = test: PTTG1 expression in H259R ACC cell line, relative to beta-actin; format: cell-based
# Text: FIG. 7 depicts the effect of vorinostat on the ACC cell line H259R.
# adrenocortical carcinoma = conditions: ACC patients; cited from earlier work
Compound,effect on PTTG1 expression (PTTG1 [1]),effect on PTTG1 expression (PTTG1 [2]),patients showing a response (adrenocortical carcinoma),side effects (adrenocortical carcinoma)
O=C(CCCCCCC(=O)Nc1ccccc1)NO [Vorinostat],reduces PTTG1 expression,reduces PTTG1 expression,,
Clc1ccc(C(c2ccccc2Cl)C(Cl)Cl)cc1 (stereo not shown) [mitotane],,,approximately 22%,"severe, dose limiting side effects"
